Numbers after ± are expanded uncertainties.
Settings: 101.33 kPa, Liquid, Vibrating tube method

mass density (278.15 K): 1105.53 ± 0.08 kg/m3
mass density (288.15 K): 1105.77 ± 0.08 kg/m3
mass density (298.15 K): 1104.36 ± 0.079 kg/m3
mass density (308.15 K): 1101.63 ± 0.079 kg/m3
mass density (318.15 K): 1097.84 ± 0.078 kg/m3
SMILES: [2H]O[2H] [water-d2]

From the NIST ThermoML archive (doi:10.1021/acs.jced.5b00154)
